According to publication PMC7926352, “Synthesis, Characterization and In Vitro Evaluation of Novel 5-Ene-thiazolo[3,2-b][1,2,4]triazole-6(5H)-ones as Possible Anticancer Agents” (Molecules, 2021):
Read-outs that look alike come from different tables or passages of the source.

Assays:
[1] = tested on: panel of approximately sixty human tumor cell lines; assay: NCI-60 human tumor cell lines screen (SRB), full panel; format: cell-based; conditions: 10 μM; for activity at 10 µM: Homo sapiens, 60 cell lines assay in one dose, 48 h; for Positive Cytostatic Effect / Positive Cytotoxic Effect: one dose; for Positive Cytostatic Effect: ratio of number of cell lines with percent growth from 0 to 50 to total number of cell lines; for Positive Cytotoxic Effect: ratio of number of cell lines with percent growth of <0 to total number of cell lines
Description: Compounds 2a, 2c–f, 2h–l, 3, 5e, 5f were selected for antitumor activity which was performed according to the standard protocols of National Cancer Institute (NCI, Bethesda, MD, USA) Developmental Therapeutic Program (DTP). At the prescreening stage, the compounds were evaluated for antitumor activity at the concentration of 10 µM against a panel of approximately sixty cancer cell lines representing different types of cancer including leukemia, melanoma, lung, colon, CNS, ovarian, renal, prostate and breast cancers.
Among them, three compounds (2d, 2h, 2i) presented excellent cytotoxic and four derivatives (2d, 2h, 2i, 2k) cytostatic properties in one or more cell lines when applied at a concentration of 10 µM. […] The outcomes were calculated and presented in the form of three response parameters (GI50, TGI and LC50) for each cell line via growth percentage inhibition curves. […]
The primary anticancer assay was performed on a panel of approximately sixty human tumor cell lines derived from nine neoplastic diseases (leukemia, melanoma, lung, colon, CNS, ovarian, renal, prostate, and breast cancers), in accordance with the protocol of the National Cancer Institute Drug Evaluation Branch (Bethesda, MD, USA). Tested compounds were added to the culture at a single concentration (10^−5 M) and the cultures were incubated for 48 h. End-point determinations were made with a protein-binding dye, sulforhodamine B (SRB). Results for each tested compound were reported as the percentage of the growth of the treated cells when compared to the untreated control cells. The percentage of the growth was evaluated spectrophotometrically versus controls not treated with test agents. […] Using absorbance measurements [time zero (Tz), control growth in the absence of drug (C), and test growth in the presence of the drug (Ti)], the percentage growth was calculated for each drug concentration. Percentage growth inhibition was calculated as:[(Ti − Tz)/[…]] × 100(1) for concentrations for which Ti ≥ Tz, [(Ti − Tz)/Tz] × 100 for concentrations for which Ti < Tz. Dose-response parameters (GI50, TGI) were calculated for each compound. Growth inhibition of 50% (GI50) was calculated from [(Ti − Tz)/(C − Tz)] × 100 = 50, which is the drug concentration resulting in a 50% lower net protein increase in the treated cells (measured by SRB staining) as compared to the net protein increase seen in the control cells. The drug concentration resulting in total growth inhibition (TGI) was calculated from Ti = Tz. Values were calculated for each of these parameters if the level of activity was reached; however, if the effect was not reached or was excessive, the value for that parameter was expressed as more or less than the maximum or minimum concentration tested. The lowest values were obtained with the most sensitive cell lines. Compounds having GI50 values ≤ 100 μM were declared to be active. The selectivity index (SI) calculated by dividing the full panel MG_MID (full-panel mean-graph midpoint) (μM) of the compounds 2h and 2i by their individual subpanel MG_MID of a cell line (μM) was considered as a measure of compounds’ selectivity. Ratios between 3 and 6 mean moderate selectivity, ratios greater than 6 indicate high selectivity toward the corresponding cell line, while compounds not meeting either of these criteria are rated nonselective.

[2] = tested on: phospholipase C-γ2 (PLC-γ2); design: method as in PMID 19303309; conditions: at 15 µM; cited from earlier work
[3] = tested on: phospholipase C-γ2 (PLC-γ2); design: method as in PMID 19303309; conditions: at 15 µM; cited from earlier work; remark: listed apart in the source

| Structure (SMILES) | activity at 10 µM ([1]; read-out: Mean Growth, %) | activity at 10 µM ([1]; read-out: Range of Growth, %) | Positive Cytostatic Effect [1] | Positive Cytotoxic Effect [1] | PLC-γ2 inhibition, biochemical assay [2] | PLC-γ2 inhibition, calcium release cell-based assay [3] | melting point |
| --- | --- | --- | --- | --- | --- | --- | --- |
| O=c1/c(=C/c2ccccc2F)sc2ncnn12 [Compound 2a, (Z)-5-(2-Fluorobenzylidene)thiazolo[3,2-b][1,2,4]triazol-6(5H)-one] | 90% | 52.8 to 123% | 0/59 | 0/59 | – | – | – |
| O=c1/c(=C/c2ccccc2[N+](=O)[O-])sc2nc(-c3ccc(F)cc3)nn12 [CCT-196700] | – | – | – | – | satisfactory activity parameters | satisfactory activity parameters | – |
| C=CCOc1ccccc1/C=c1\sc2ncnn2c1=O [Compound 2c, (Z)-5-(2-(Allyloxy)benzylidene)thiazolo[3,2-b][1,2,4]triazol-6(5H)-one] | 103% | 77.1 to 146% | 0/59 | 0/59 | – | – | – |
| CCOC(=O)N1CCN(/C=c2\sc3ncnn3c2=O)CC1 [Compound 6d, Ethyl(Z)-4-((6-oxothiazolo[3,2-b][1,2,4]triazol-5(6H)-ylidene)methyl)piperazine-1-carboxylate] | – | – | – | – | – | – | 204 to 206 °C |
| O=c1/c(=C/Nc2ccc(Cl)cc2)sc2ncnn12 [Compound 5f, (E/Z)-5-(((4-Chlorophenyl)amino)methylene)thiazolo[3,2-b][1,2,4]triazol-6(5H)-one] | 93.6% | 54.4 to 112% | 0/59 | 0/59 | – | – | – |
| O=c1/c(=C/N2CCN(CCO)CC2)sc2ncnn12 [Compound 6c, (Z)-5-((4-(2-Hydroxyethyl)piperazin-1-yl)methylene)thiazolo[3,2-b][1,2,4]triazol-6(5H)-one] | – | – | – | – | – | – | 189 to 192 °C |
| CC(=O)Oc1ccc(/C=c2\sc3ncnn3c2=O)cc1 [Compound 2d, (Z)-4-((6-Oxothiazolo[3,2-b][1,2,4]triazol-5(6H)-ylidene)methyl)phenyl acetate] | 99.7% | -73.9 to 148% | 2/58 | 3/58 | – | – | – |
| COc1ccc(/C=c2\sc3ncnn3c2=O)cc1OC [Compound 2f, (Z)-5-(3,4-Dimethoxybenzylidene)thiazolo[3,2-b][1,2,4]triazol-6(5H)-one] | 108% | 86.7 to 262% | 0/57 | 0/57 | – | – | – |
| CCN(CC)c1ccc(/C=c2\sc3ncnn3c2=O)cc1 [Compound 2e, (Z)-5-(4-(Diethylamino)benzylidene)thiazolo[3,2-b][1,2,4]triazol-6(5H)-one] | 102% | 61.9 to 134% | 0/58 | 0/58 | – | – | – |
| Cc1cccc(NC(=O)COc2ccc(Cl)cc2/C=c2\sc3ncnn3c2=O)c1 [Compound 2g, (Z)-2-(4-Chloro-2-((6-oxothiazolo[3,2-b][1,2,4]triazol-5(6H)-ylidene)methyl)phenoxy)-N-(m-tolyl)acetamide] | – | – | – | – | – | – | 260 to 262 °C |
| O=c1c(=Cc2cccs2)sc2ncnn12 [Compound 2k, (Z)-5-(Thiophen-2-y-lmethylene)thiazolo[3,2-b][1,2,4]triazol-6(5H)-one] | 111% | 25.2 to 180% | 1/56 | 0/56 | – | – | – |
| O=c1/c(=C/N2CCc3ccccc32)sc2ncnn12 [Compound 6a, (Z)-5-(Indolin-1-ylmethylene)thiazolo[3,2-b][1,2,4]triazol-6(5H)-one] | – | – | – | – | – | – | > 250 °C |
| O=c1/c(=C/N2CCCCC2)sc2ncnn12 [Compound 6b, (Z)-5-(Piperidin-1-ylmethylene)thiazolo[3,2-b][1,2,4]triazol-6(5H)-one] | – | – | – | – | – | – | 190 to 192 °C |
| O=C(O)CSc1nnc[nH]1 [Compound 3, 2-((1H-1,2,4-Triazol-3-yl)thio)acetic Acid] | 97.2% | 74.8 to 122% | 0/59 | 0/59 | – | – | – |
| O=c1/c(=C/c2ccco2)sc2ncnn12 [Compound 2j, (Z)-5-(Furan-2-ylmethylene)thiazolo[3,2-b][1,2,4]triazol-6(5H)-one] | 106% | 82.4 to 136% | 0/56 | 0/56 | – | – | – |
| COc1ccccc1/C=c1\sc2ncnn2c1=O [Compound 2b, (Z)-5-(2-Methoxybenzylidene)thiazolo[3,2-b][1,2,4]triazol-6(5H)-one] | – | – | – | – | – | – | 196 to 198 °C |
| O=c1/c(=C/Nc2cccc(O)c2)sc2ncnn12 [Compound 5e, (E/Z)-5-(((3-Hydroxyphenyl)amino)methylene)thiazolo[3,2-b][1,2,4]triazol-6(5H)-one] | 101% | 80.3 to 138% | 0/59 | 0/59 | – | – | – |
| CC(=O)n1cc(/C=c2\sc3ncnn3c2=O)c2ccccc21 [Compound 2l, (Z)-5-((1-Acetyl-1H-indol-3-yl)methylene)thiazolo[3,2-b][1,2,4]triazol-6(5H)-one] | 105% | 66.9 to 141% | 0/59 | 0/59 | – | – | – |
